Experimental data published in patent US4891361A, “Method of minimizing erythema and elastosis” (Sansho Seiyaku Co., Ltd., priority 1985, dated 1990).

Assays:
mouse melanoma B16 cells = experiment: Color fading test of cultured pigment cells (mouse melanoma B16 cells); assay type: cell-based
Experimental: Besides the effects described above, the drugs of this invention also have powerful action to inhibit the formation of melanin. To be more specific, the drugs are very effective in inhibiting the formation of dopachrome (a red pigment). […] A color fading test of cultured pigment cells was carried out using kojic acid and kojic acid/β-cyclodextrin inclusion complex.
B: 20% solution of kojic acid/β-cyclodextrin inclusion complex
Mouse melanoma B16 cells (hereinafter referred to simply as "B16 cells") (each dish containing […] cells) were grown in Eagle's MEM medium (with 10% fetal calf serum added thereto), (a) in the presence of kojic acid at a concentration of 2.5 mM (Test zone A), (b) in the presence of kojic acid/β-cyclodextrin inclusion complex at a concentration of 2.5 mM (as kojic acid) (Test zone B), and (c) in the absence of any drug (Test zone C), at 37° C. for six days in an atmosphere consisting of 5% CO2 and 95% air. At the end of incubation, each culture was treated with trypsin, then centrifuged at 2000rpm for five minutes to prepare cell pellets, and the degree of blackness was visually compared.

mice = mice (both male and female), orally administered; cited from earlier work
elastosis = experiment: Animal test: UV-induced elastosis, elastic fiber histology (Hematoxylin-Eosin, Weigert and Orcein-Giemsa staining); assay type: in vivo, female Spraguex-Dawley rats; conditions: Test Zone, 1% suspension, total 10, end of the test (12 months)
Description: (§1) Test Method Ten heads of female Spraguex-Dawley rats of 4-week age were used for the test. The back of each rat was divided into two zones along its center line; one (test zone) was coated with a 1% suspension of kojic acid in a 1% aqueous solution of carboxymethylcellulose, and the other (control zone) was coated with a 1% aqueous solution of carboxymethylcellulose. The coated solution was washed off with hot water one hour later, and each zone was then irradiated with ultraviolet rays for 20 minutes using four UV tubes (Toshiba, Model 20S;E30) placed 62 cm away from the back of each rat. This operation was performed three times a week (on Monday, Wednesday and Friday) and continued over a period of six months. The drug solution and control solution were applied every day (even on days when UV irradiation was omitted). After that, the coating operation alone was continued for an additional six months. At the end of the test, tissues were excised from the test and control zones of each rat, paraffin sections of the skin, prepared from the tissues taken out, were subjected to a Hematoxylin-Eosin, Weigert and Orcein-Giemsa staining process, and the conditions of the elastic fiber were observed.

rats = rats (both male and female), orally administered; cited from earlier work
erythema = experiment: Animal test: severity of UV-induced erythema on rat back; assay type: in vivo, female Spraguex-Dawley rats; design: key: -: No erythema; ±: Very slight erythema; +: Slight erythema; ++: Medium erythema; +++: Severe erythema; conditions: Test zone, 1% suspension
Description: as §1, with “Severity of erythema developed on each zone was observed immediately after” for “At”, “start” for “end”, “test,” for “test, tissues were excised from the test”, “2, 4, 6, 8, 10” for “control zones of each rat, paraffin sections of the skin, prepared from the tissues taken out, were subjected to a Hematoxylin-Eosin, Weigert”, “12 months later.” for “Orcein-Giemsa staining process, and the conditions of the elastic fiber were observed.”

For O=c1cc(CO)occ1O [Kojic acid], the “Color fading (degree of blackness of cell pellet, visual)” value (mouse melanoma B16 cells; 2.5 mM (as kojic acid), six days, 37° C., compared with Test zone C (control)) is given as “Considerable color fading”, the “Inhibition of the formation of melanin (conclusion from color fading test)” value (mouse melanoma B16 cells; mouse melanoma B16 cells) is given as “outstanding effect” and the LD50 (mice) is given as 2500 to 3500 mg/kg. For the same compound, the “Number of rats with evaluation + (Slight elastosis)” value (elastosis) was 3, the “Number of rats with evaluation ++ (Medium elastosis)” value (elastosis) was 1 and the “Number of rats with evaluation +++ (Severe elastosis)” value (elastosis) was 0. For the same compound, the “Number of rats with evaluation - (No elastosis)” value (elastosis) was 3, the “Number of rats with evaluation ± (Very slight elastosis)” value (elastosis) was 3 and the LD50 (rats) was 2500 to 3500 mg/kg. For the same compound, the Severity of erythema (erythema; Coating Alone, month 8) was “-”, the Severity of erythema (erythema; Coating Alone, month 10) was “-” and the Severity of erythema (erythema; Coating Alone, month 12) was “-”. For the same compound, the Severity of erythema (erythema; Irradiation Period, month 0 (immediately after the start)) was “-”, the Severity of erythema (erythema; Irradiation Period, month 2) was “+” and the Severity of erythema (erythema; Irradiation Period, month 4) was “++”. For the same compound, the Severity of erythema (erythema; Irradiation Period, month 6) was “++”.
